Measurements as given in PubChem BioAssay (NCI).
“And” between values parts separate entries of the source, which are not always exact repeats. Identical values can stand only once.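 Five concentrations, 48 hours, 96-well plates. GI50: concentration for 50% inhibition of growth. TGI is the concentration that stops growth completely.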

How the values were obtained:
Test in all cases: NCI-60 cell line screen, 48 h
[1] = system: DLD-1 colon
[2] = system: HOP-18 NSCLC
[3] = system: KM20L2 colon
[4] = system: LXFL 529 NSCLC
[5] = system: XF 498 CNS
[6] = system: M19-MEL melanoma
[7] = system: DU-145 prostate

Compound	TGI [1]	TGI [2] [µM]	TGI [3] [µM]	TGI [4]	TGI [5]	TGI [6]	GI50 [1] [µM]	GI50 [3] [µM]	GI50 [4] [µM]	GI50 [6] [µM]	GI50 [5] [nM]	GI50 [2] [µM]	TGI [7] [µM]
CCOC(=O)C(=O)Nc1ccccc1C(F)(F)F	> 100 µM	> 100	> 100	> 100 µM	> 100 µM								
O=c1c(Cl)c(Cl)cnn1CCc1ccncc1	30.4 µM	34.2	36.2	29.8 µM	29.6 µM	30.8 µM							
CC/C(=N\NS(=O)(=O)c1ccccc1)c1ccccc1	> 100 µM	> 100	> 100	> 100 µM	> 100 µM	> 100 µM							
C[n+]1c2ccccc2cc2c(CNC(CCCN=C(N)N)C(=O)O)cccc21 (configuration not stated)	1.32 µM and 1.74 µM	15.5	12.3	2.12 µM and 2.14 µM	3.5 µM and 4.02 µM	2.26 µM and 17 µM	0.481	0.346	0.659	4.23	2460		
CCN(CC)CC(=O)N1CCc2c([nH]c3ccccc23)C1c1cccnc1 (configuration not stated)	> 100 µM	> 100	> 100	> 100 µM	> 100 µM	> 100 µM							
CC(=O)[CH-]C(C)=O.[CH2-]C.[CH2-]C.[Tl+3]	> 100 µM	> 100	> 100	> 100 µM	> 100 µM		> 100	> 100	> 100		> 100000	> 100	
CNC(SC)=C1C(=O)OC(C)(C)OC1=O	54.2 µM	> 100	> 100	> 100 µM	> 100 µM	> 100 µM							
C#CCC(N)(CO)C(=O)O (configuration not stated)	> 100 µM	> 100		> 100 µM	> 100 µM	> 100 µM							
CC(=O)[O-].CC(=O)[O-].CC(=O)[O-].CC(=O)[O-].[Mo+2].[Mo+2]	> 100 µM	> 100	> 100	> 100 µM			> 100	> 100	> 100			> 100	
NC(=O)/C=C/C(=O)O	> 5000 µM	> 5000		> 5000 µM		> 5000 µM							
CC1(C)OC2COC3(CNO)OC(C)(C)OC3C2O1 (configuration not stated)	> 100 µM	> 100				> 100 µM							
C=CCC1[C@@H](C(C)(C)C(C(C)=O)C(=O)C(=O)OC)OC(C(C)(C)C)N1C(=O)OC (some centres not stated)	> 100 µM	> 100	> 100		> 100 µM	> 100 µM							
COc1cc2cnc3c4ccccc4ccc3c2cc1OC	> 100 µM		> 100	> 100 µM	> 100 µM	> 100 µM							
O=C/C(=C(/Cl)c1ccc(O)cc1)c1ccccc1	> 60.1 µM	> 31.6	> 59.8	59.9 µM	> 45.4 µM	42.1 µM							> 100
